Molecules are shown by their SMILES. Where only a bound is given, the exact number is not on record here.

MLK3, sequence (Q16584 whole entry): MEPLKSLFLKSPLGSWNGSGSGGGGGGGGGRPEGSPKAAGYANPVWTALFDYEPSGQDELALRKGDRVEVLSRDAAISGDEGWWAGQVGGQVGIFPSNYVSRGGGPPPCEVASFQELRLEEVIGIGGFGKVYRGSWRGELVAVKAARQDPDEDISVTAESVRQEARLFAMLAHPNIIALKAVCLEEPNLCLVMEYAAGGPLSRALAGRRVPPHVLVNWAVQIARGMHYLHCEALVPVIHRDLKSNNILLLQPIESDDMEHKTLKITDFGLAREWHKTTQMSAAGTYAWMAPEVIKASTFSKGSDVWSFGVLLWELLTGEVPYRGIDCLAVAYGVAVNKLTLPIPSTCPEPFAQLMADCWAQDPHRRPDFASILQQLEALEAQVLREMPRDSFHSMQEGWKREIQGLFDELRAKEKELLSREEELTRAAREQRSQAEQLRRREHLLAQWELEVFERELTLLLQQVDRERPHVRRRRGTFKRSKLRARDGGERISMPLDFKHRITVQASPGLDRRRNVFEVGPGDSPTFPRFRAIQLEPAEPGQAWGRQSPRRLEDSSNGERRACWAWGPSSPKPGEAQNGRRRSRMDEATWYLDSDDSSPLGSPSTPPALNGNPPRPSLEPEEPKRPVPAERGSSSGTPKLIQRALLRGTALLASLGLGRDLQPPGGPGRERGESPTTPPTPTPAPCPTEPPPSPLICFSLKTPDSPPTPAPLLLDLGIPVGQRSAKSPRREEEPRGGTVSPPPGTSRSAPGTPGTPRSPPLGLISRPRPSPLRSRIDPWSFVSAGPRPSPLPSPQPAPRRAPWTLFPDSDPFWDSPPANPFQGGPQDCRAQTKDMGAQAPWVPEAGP

The first assay addresses MLK3 (Homo sapiens (Human), UniProt Q16584). Kind of assay: Radiometric filter plate MLK3 assay. It counts as biochemical. The note with it: 2 μM cold ATP (Km), 1 μM inactive MKK7b, twenty minute incubation; read-out: MK3 IC50. Here is the method:
After a twenty minute incubation, the reactions were washed through filter plates and read on a scintillation counter. Results are shown in Table 9 below, in which +++ indicates ≤0.1 μM, ++ indicates >0.1 μM and ≤1 μM, and + indicates >1 μM.
The IC50 is the concentration that gives 50% inhibition. For the compound `COc1cc(OC)cc(-c2cnc3[nH]c(=O)n(-c4ccc5[nH]ccc5c4)c3n2)c1` [Example 65, 6-(3,5-dimethoxyphenyl)-1-(1H-indol-5-yl)-1H-imidazo[4,5-b]pyrazin-2(3H)-one], the IC50 is more than 1 µM.

As for `COc1cc(-c2cnc3[nH]cc(-c4ccc(C(N)=O)cc4)c3c2)cc(OC)c1OC` [Example 25, 4-(5-(3,4,5-trimethoxyphenyl)-1H-pyrrolo[2,3-b]pyridin-3-yl)benzamide], the IC50 was less than 0.1 µM. Same read-out and setting: as for `COc1cc(-c2cnc3ncn(-c4ccc5[nH]ccc5c4)c3n2)cc(OC)c1OC` [Example 126, 1-(1H-indol-5-yl)-6-(3,4,5-trimethoxyphenyl)-1H-imidazo[4,5-b]pyrazine], the figure is more than 1 µM; as for `O=c1[nH]c2ncc(-c3ccc(N4CCOCC4)cc3)nc2n1CC1CC1` [Example 86, 1-(cyclopropylmethyl)-6-(4-morpholinophenyl)-1H-imidazo[4,5-b]pyrazin-2(3H)-one], more than 1 µM.

For the compound `O=c1[nH]c2ncc(-c3cc(Cl)cc(Cl)c3)nc2n1-c1ccc2[nH]ccc2c1` [Example 48, 6-(3,5-dichlorophenyl)-1-(1H-indol-5-yl)-1H-imidazo[4,5-b]pyrazin-2(3H)-one], the IC50 was more than 1 µM.

As to `COc1cc(-c2cnc3[nH]cc(-c4ccc5[nH]ccc5c4)c3c2)ccc1OCCN(C)C` [Example 35, 2-(4-(3-(1H-indol-5-yl)-1H-pyrrolo[2,3-b]pyridin-5-yl)-2-methoxyphenoxy)-N,N-dimethylethanamine], the IC50 is more than 1 µM. Take `Cc1cc(C)cc(-c2cnc3[nH]c(=O)n(-c4ccc5c(ccn5C)c4)c3n2)c1` [Example 43, 6-(3,5-dimethylphenyl)-1-(1-methyl-1H-indol-5-yl)-1H-imidazo[4,5-b]pyrazin-2(3H)-one]: the IC50 was more than 1 µM. Still for that read-out and setting: as for `COc1cc(-c2cnc3[nH]c(=O)n(-c4ccc5[nH]ccc5c4)c3n2)cc(OC)c1OC` [Example 40, 1-(1H-indol-5-yl)-6-(3,4,5-trimethoxyphenyl)-1H-imidazo[4,5-b]pyrazin-2(3H)-one], the figure is less than 0.1 µM. Turning to `COc1cc(-c2cnc3[nH]cc(-c4ccc(N(C)C)nc4)c3c2)cc(OC)c1OC` [Example 19, N,N-dimethyl-5-(5-(3,4,5-trimethoxyphenyl)-1H-pyrrolo[2,3-b]pyridin-3-yl)pyridin-2-amine], the IC50 was less than 0.1 µM.

Turning to `CC1CN(Cc2ccc(-c3cnc4[nH]cc(-c5ccc6[nH]ccc6c5)c4c3)cc2)CCN1C` (centres unmarked) [Example 189, 5-(4-((3,4-dimethylpiperazin-1-yl)methyl)phenyl)-3-(1H-indol-5-yl)-1H-pyrrolo[2,3-b]pyridine], the IC50 was less than 0.1 µM.

Consider `CC(C)C(=O)N1CCN(Cc2ccc(-c3cnc4[nH]cc(-c5ccc6[nH]ccc6c5)c4c3)cc2)CC1` [Example 196], for which the IC50 was less than 0.1 µM. Same read-out and setting: as for `COc1ccc(-c2cnc3[nH]cc(-c4ccc(C(N)=O)cc4)c3c2)cc1OC` [Example 26, 4-(5-(3,4-dimethoxyphenyl)-1H-pyrrolo[2,3-b]pyridin-3-yl)benzamide], the figure is less than 0.1 µM; as for `COc1ccc(-c2cnc3[nH]c(=O)n(-c4ccc5[nH]ccc5c4)c3n2)cc1F` [Example 49, 6-(3-fluoro-4-methoxyphenyl)-1-(1H-indol-5-yl)-1H-imidazo[4,5-b]pyrazin-2(3H)-one], more than 1 µM; as for `O=c1[nH]c2ncc(-c3ccncc3)nc2n1-c1ccc2scnc2c1` [Example 98, 1-(benzo[d]thiazol-5-yl)-6-(pyridin-4-yl)-1H-imidazo[4,5-b]pyrazin-2(3H)-one], more than 1 µM. Still for that read-out and setting: as for `Cc1cc(C)cc(-c2cnc3[nH]c(=O)n(-c4ccc5[nH]ccc5c4)c3n2)c1` [Example 46, 6-(3,5-dimethylphenyl)-1-(1H-indol-5-yl)-1H-imidazo[4,5-b]pyrazin-2(3H)-one], the figure is more than 1 µM; as for `COc1ccc(-n2c(=O)[nH]c3ncc(-c4ccncc4)nc32)cc1` [Example 71, 1-(4-methoxyphenyl)-6-(pyridin-4-yl)-1H-imidazo[4,5-b]pyrazin-2(3H)-one], more than 1 µM; as for `CN1CCN(Cc2ccc(-c3cnc4[nH]cc(-c5ccc(C(F)(F)F)cc5)c4c3)cc2)CC1` [Example 170], more than 1 µM.

Take `COc1cc(-c2cnc3[nH]cc(-c4ccc5[nH]ccc5c4)c3c2)ccc1N` [Example 5, 4-(3-(1H-indol-5-yl)-1H-pyrrolo[2,3-b]pyridin-5-yl)-2-methoxyaniline]: the IC50 was less than 0.1 µM. Still for that read-out and setting: the value for `CN1CCN(Cc2cccc(-c3cnc4[nH]cc(-c5ccc(C(N)=O)cc5)c4c3)c2)CC1` [Example 156, 4-{5-[3-(4-methyl-piperazin-1-ylmethyl)-phenyl]-1H-pyrrolo[2,3-b]pyridin-3-yl}-benzamide] was less than 0.1 µM; that for `COCCC(=O)N1CCN(Cc2ccc(-c3cnc4[nH]cc(-c5ccc6[nH]ccc6c5)c4c3)cc2)CC1` [Example 202] was less than 0.1 µM.

For `O=C1CCC(C(=O)N2CCN(Cc3ccc(-c4cnc5[nH]cc(-c6ccc7[nH]ccc7c6)c5c4)cc3)CC2)N1` (centres unmarked) [Example 205], the IC50 was less than 0.1 µM. For `O=c1[nH]c2ncc(-c3ccc4cc[nH]c4c3)nc2n1-c1ccc2[nH]ccc2c1` [Example 56, 1-(1H-indol-5-yl)-6-(1H-indol-6-yl)-1H-imidazo[4,5-b]pyrazin-2(3H)-one], the IC50 was more than 1 µM. Regarding `COc1cc(-c2cnc3[nH]c(=O)n(-c4ccc5[nH]c(C)cc5c4)c3n2)cc(OC)c1OC` [Example 72, 1-(2-methyl-1H-indol-5-yl)-6-(3,4,5-trimethoxyphenyl)-1H-imidazo[4,5-b]pyrazin-2(3H)-one], the IC50 was less than 0.1 µM. On to `Nc1ccc(-c2cnc3[nH]c(=O)n(C4CCCC4)c3n2)cn1` [Example 117, 6-(6-aminopyridin-3-yl)-1-cyclopentyl-1H-imidazo[4,5-b]pyrazin-2(3H)-one], for which the IC50 is more than 1 µM.

For the compound `O=C1CN(Cc2ccc(-c3cnc4[nH]cc(-c5ccc6[nH]ccc6c5)c4c3)cc2)CCN1` [Example 142, 4-{4-[3-(1H-indol-5-yl)-1H-pyrrolo[2,3-b]pyridin-5-yl]-benzyl}-piperazin-2-one], the IC50 is less than 0.1 µM. `Nc1ncc(-c2cnc3[nH]cc(-c4cnc(N)nc4)c3c2)cn1` [Example 20, 5,5′-(1H-pyrrolo[2,3-b]pyridine-3,5-diyl)dipyrimidin-2-amine]: the IC50 is more than 1 µM. As to `COc1cc(-c2cnc3[nH]cc(-c4ccc(N)cc4)c3c2)cc(OC)c1OC` [Example 15, 4-(5-(3,4,5-trimethoxyphenyl)-1H-pyrrolo[2,3-b]pyridin-3-yl)aniline], the IC50 was less than 0.1 µM.

For `COc1cc(-c2cnc3[nH]c(=O)n(-c4ccc5[nH]ccc5c4)c3n2)cc(OC)c1O` [Example 62, 6-(4-hydroxy-3,5-dimethoxyphenyl)-1-(1H-indol-5-yl)-1H-imidazo[4,5-b]pyrazin-2(3H)-one], the IC50 is less than 0.1 µM. For the compound `CS(=O)(=O)N1CCN(Cc2ccc(-c3cnc4[nH]cc(-c5ccc6[nH]ccc6c5)c4c3)cc2)CC1` [Example 200], the IC50 is less than 0.1 µM.

On to `CC(=O)N1CCN(Cc2ccc(-c3cnc4[nH]cc(-c5ccc(C(N)=O)cc5)c4c3)cc2)CC1` [Example 157, 4-{5-[4-(4-acetyl-piperazin-1-ylmethyl)-phenyl]-1H-pyrrolo[2,3-b]pyridin-3-yl}-benzamide], for which the IC50 is less than 0.1 µM. Still for that read-out and setting: as for `COc1ccc(-c2cnc3[nH]c(=O)n(-c4ccc5[nH]ncc5c4)c3n2)cc1OC` [Example 87, 6-(3,4-dimethoxyphenyl)-1-(1H-indazol-5-yl)-1H-imidazo[4,5-b]pyrazin-2(3H)-one], the figure is more than 1 µM. Same read-out and setting: the value for `COc1cc(-c2cnc3[nH]c(=O)n(-c4cnc5[nH]ccc5c4)c3n2)cc(OC)c1OC` [Example 112, 1-(1H-pyrrolo[2,3-b]pyridin-5-yl)-6-(3,4,5-trimethoxyphenyl)-1H-imidazo[4,5-b]pyrazin-2(3H)-one] was less than 0.1 µM; that for `COc1cc(OC)c(-c2cnc3[nH]c(=O)n(C4CCCC4)c3n2)c(OC)c1` [Example 94, 1-cyclopentyl-6-(2,4,6-trimethoxyphenyl)-1H-imidazo[4,5-b]pyrazin-2(3H)-one] was more than 1 µM. For the compound `COc1cc(-c2cnc3[nH]cc(-c4ccc(NC(C)=O)cc4)c3c2)cc(OC)c1OC` [Example 16, N-(4-(5-(3,4,5-trimethoxyphenyl)-1H-pyrrolo[2,3-b]pyridin-3-yl)phenyl)acetamide], the IC50 was less than 0.1 µM.

Staying with this assay, now noted: read-out: MK3 IC50.
Turning to `c1cc2cc(-c3c[nH]c4ncc(-c5ccc(CN6CCNCC6)cc5)cc34)ccc2[nH]1` [Example 168, 3-(1H-indol-5-yl)-5-(4-(piperazin-1-ylmethyl)phenyl)-1H-pyrrolo[2,3-b]pyridine], the IC50 lay within 0.1 to 1 µM.

As to `CN1CCN(Cc2ccc(-c3cnc4[nH]c(=O)n(-c5ccc6[nH]ccc6c5)c4n3)cc2)CC1` [Example 212, 1-(1H-Indol-5-yl)-6-[4-(4-methyl-piperazin-1-ylmethyl)-phenyl]-1,3-dihydro-imidazo[4,5-b]pyrazin-2-one], the IC50 was in the range of 0.1 to 1 µM. The same measure, in the same setting: as for `COc1cc(-c2cnc3[nH]c(=O)n(-c4ccc5[nH]ncc5c4)c3n2)cc(OC)c1OC` [Example 83, 1-(1H-indazol-5-yl)-6-(3,4,5-trimethoxyphenyl)-1H-imidazo[4,5-b]pyrazin-2(3H)-one], the figure is 0.1 to 1 µM.

As to `Cc1c[nH]c2ccc(-c3c[nH]c4ncc(-c5ccc(CN6CCN(C)CC6)cc5)cc34)cc12` [Example 176], the IC50 lay within 0.1 to 1 µM. Still for that read-out and setting: as for `FC(F)(F)CN1CCN(Cc2ccc(-c3cnc4[nH]cc(-c5ccc6[nH]ccc6c5)c4c3)cc2)CC1` [Example 207, 3-(1H-indol-5-yl)-5-(4-((4-(2,2,2-trifluoroethyl)piperazin-1-yl)methyl)phenyl)-1H-pyrrolo[2,3-b]pyridine], the figure is 0.1 to 1 µM. Still for that read-out and setting: as for `COc1ccc(-c2c[nH]c3ncc(-c4ccc(CN5CCN(C)CC5)cc4)cc23)cc1` [Example 171], the figure is 0.1 to 1 µM; as for `COc1cc(-c2cnc3[nH]c(=O)n(C4CCCC4)c3n2)ccc1N` [Example 118, 6-(4-amino-3-methoxyphenyl)-1-cyclopentyl-1H-imidazo[4,5-b]pyrazin-2(3H)-one], 0.1 to 1 µM.
